One data set concerns primary human AML cells. In words: Viability / cell death of primary AML cells in culture (Annexin V/PI flow cytometry). The data set is classed as cell-based. Particulars: for cell death rate: 96 h after first treatment, Chariot (Example 1). The procedure: Whether a therapeutic effect could be achieved by using this wt peptide on primary AML samples was then tested. Ninety-six hours after the first treatment of peptides (wt, Mut, or Scr) or TSA in the primary AML cells collected from a patient, the remaining alive cells were measured by FACS analysis using Annexin V/PI staining. During the treatment the wt and control peptides (Mut or Scr) were re-introduced twice at the 24-hour and the 48-hour time points along with the Chariot (Active Motif) transfection agent. A significant effect of the wt peptide on the cell viability of primary AML cells was observed. While there was a 56% cell death rate with wt peptide treatment at the end of the fourth day, the cell death rate was only 35% in the non-treated or treated with the control peptide, and the cell death rate was 44% in cells treated with TSA (FIG. 5).
Three frozen primary AML patient samples were used for this study, and were obtained from Brigham and Women's Hospital at Boston, Mass., USA, under approved IRB protocol (No. 2011-P-000096/1). Culture conditions were adapted from a published protocol 28-31. In brief, the frozen AML samples were incubated in RPMI1640 medium without serum for 1 to 3 h after thawing and DNA fragments from dead cells were removed by washing. After three washes with the medium, 1×10^6 cells per well of 12-well plate were maintained in 1 ml of serum-free medium (StemSpan-H3000, Catalogue #09800, StemCell Technologies) supplied with StemSpan CC 100 cytokine cocktail (Catalogue #02690, StemCell Technologies) that supports 40-50% viability at 72 hours postthaw culturing based on our experience. These cells were then used for the down-regulation of SALL4 (see details below) and peptide treatment experiments.
SALL4 is critical for leukemic cell survival in the AML cell line NB4 (Yang, et al., Blood, 112:805-813 (2008)). Asked herein was whether this is also the case for primary human AML samples. Three SALL4/PTEN-expressing AML samples were selected for experiments in which cells were first tested under culture conditions that maintain/promote viability of AML cells 28-31. The SALL4-specific shRNA that has been validated in previous studies (Yang et al., PLoS One, 5:e10766 (2010); Yang, et al., Blood, 112:805-813 (2008); Yang et al., PNAS USA, 104:10494-10499 (2007)) was utilized in these AML patient samples (FIG. 11A). 48 hours after transduction, the viability of cells was determined by flow cytometry after staining with Annexin V and propidium iodide (PI). Live cells are Annexin V negative and PI negative, the double negative population. […] Furthermore, in a xenotransplant model, increased survival of leukemic cell recipient NOD/SCID/IL2rγ-null (NSG) mice following knocking down SALL4 expression in the primary AML samples was observed (FIG. 11C). Fatal AML with onset ranging from one to three months developed in all recipients receiving AML cells transduced with a scrambled control shRNA (n=7), while only 2 out of 6 mice receiving SALL4 shRNA-treated primary AML developed leukemia. While the median survival of scrambled shRNA control recipient mice (n=7) was 33 days, the median survival of SALL4 shRNA recipient mice (n=6) was 109 days (P=0.01). The transplanted leukemia disease was characterized by immature blasts with human CD45 expression in peripheral blood, bone marrow, and tissues such as liver and spleen (FIG. 11D to 11F).
Next tested was whether a therapeutic effect could be achieved by using the wild type peptide in primary human AML samples. The same SALL4/PTEN expressing primary AML samples were selected for experiments under the same culture conditions as mentioned above. Leukemic cells were subjected to three treatment regimes: peptide (wild type or scrambled), peptide plus PTEN inhibitor, or HDAC inhibitor (TSA). To assist peptide delivery into cells, a carrier agent, Pep-1 was used for all the experiments, and control treated cells were given pep-1 alone (mock). […]
On the technique in general: In flow cytometry, cells or beads pass a laser one at a time.

Another data set relates to c-Myc. The data set is described as follows: c-Myc protein expression in SNU-398 cells. The data set is classed as cell-based, human. As to the method: Also tested was whether wt peptide could affect genes that were known to be activated by SALL4, such as c-Myc. SNU-398 cells treated with wt or Scr peptide were evaluated for c-Myc protein expression. No change was observed among SNU-398 cells that were not treated or treated with either wt, Scr or TSA. When combined, the observation on the biological effects of the peptide treatment and the expression of Pten/Akt pathway in these cells, it was noticed that the wt peptide and its role in cell death promotion was correlated to its effect on the expression levels of Pten/Akt.

Where two headings read alike, the source gives them in different places.

The cell viability is a per cent measure of how many cells are alive, often set against a control. For `CC(/C=C/C(=O)NO)=C\[C@@H](C)C(=O)c1ccc(N(C)C)cc1` [TSA, Trichostatin A, reference compound], in the data set with primary human AML cells (primary AML, Annexin V/PI), the cell death rate worked out at 44%. Further, the cell viability with primary human AML cells (primary AML, fourth day, Pep-1 carrier, untreated set as 100 (Example 2)) stood at 54.7%. In the data set on c-Myc, the c-Myc protein expression result was “No change”.

“GATGCCTTGAAACAAGCCAAGCTACCTCA (chemistry not given here) [compound 7412, SALL4 shRNA used in primary AML cells]”: the “viability after SALL4 knock-down” value in the data set on primary human AML cells is listed as 80.9%. Also, the “increase in cell apoptosis and cell death” value in the data set on primary human AML cells (primary AML, Annexin V/PI, after SALL4 knock-down) stood at 2 fold.

For “H-MSRRKQAKPQHI-OH [wt peptide, MSRRKQAKPQHI]”, the cell viability in the data set on primary human AML cells (human, 96 h) came to 55.3%. Further, in the data set on primary human AML cells (primary AML, Annexin V/PI), the cell death rate is 56%. For the same molecule, the c-Myc protein expression entry with c-Myc is listed as “No change”.

Regarding “Scr peptide: same 12 amino acids as the wt peptide, but in a scrambled sequence; negative control (SRMRQKIHPKIQ) [reference compound]”, in the data set with primary human AML cells, the cell viability entry is “over 97%”. For the same molecule, in the data set with primary human AML cells (primary AML, Annexin V/PI), the cell death rate result is reported as “the same value as the untreated”. Moreover, the c-Myc protein expression result with c-Myc is given as “No change”.
